Test results as given in patent publication US9376380B2 (University of Pittsburgh—Of the Commonwealth System of …, priority 2011, dated 2016).
Where two headings read alike, the source gives them in different places.

Biological target: CB2 receptor (Homo sapiens, UniProt P34972)
Experiment: [3H]CP-55,940 radioligand competition binding, CB2
Design: host or cells: cell membrane preparations
Conditions: for SI: selectivity index for CB2: Ki(CB1)/Ki(CB2) ratio
[1] = [3H]CP-55,940 displacement, read-out: Ki (CB2)

CB2 receptor, sequence (P34972 whole entry): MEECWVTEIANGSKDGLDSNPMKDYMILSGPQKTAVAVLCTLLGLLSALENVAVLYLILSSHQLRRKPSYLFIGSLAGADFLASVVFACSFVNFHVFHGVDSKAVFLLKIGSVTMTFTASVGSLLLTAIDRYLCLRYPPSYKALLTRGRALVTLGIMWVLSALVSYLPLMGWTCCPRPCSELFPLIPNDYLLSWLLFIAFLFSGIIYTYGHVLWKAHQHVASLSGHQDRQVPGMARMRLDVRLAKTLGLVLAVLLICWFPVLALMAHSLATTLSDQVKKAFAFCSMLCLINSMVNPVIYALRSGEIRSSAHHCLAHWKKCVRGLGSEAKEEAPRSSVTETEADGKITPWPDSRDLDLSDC

| Ki [1] [nM] | SI: selectivity index for CB2 | Structure (SMILES) | Ki [nM] |
| --- | --- | --- | --- |
| > 20000 | – | O=C(Cc1ccc(C(F)(F)F)cc1)NC(NC(=O)Cc1ccc(C(F)(F)F)cc1)c1ccc(F)cc1 [Compound 32, N,N′-((4-fluorophenyl)methylene)bis(2-(4-(trifluoromethyl)phenyl)acetamide)] | – |
| 1310 | – | CCCCCCCN(Cc1ccc(N(CC)CC)cc1)C(=O)Cc1ccccc1 [Compound 76, N-(4-(Diethylamino)benzyl)-N-heptyl-2-phenylacetamide] | – |
| 11800 | – | O=C(Cc1ccccc1)NC(NC(=O)Cc1ccccc1)c1ccccc1C(F)(F)F [Compound 13, N,N′-((2-(trifluoromethyl)phenyl)methylene)bis(2-phenylacetamide)] | – |
| 221 | >90 | CCCCN(CCCC)c1ccc(C(NC(=O)Cc2ccccc2)NC(=O)Cc2ccccc2)cc1 [Compound 18, N,N′-((4-(dibutylamino)phenyl)methylene)bis(2-phenylacetamide)] | – |
| 638 | – | CCCCCCCC(=O)N(Cc1ccc(N(CC)CC)cc1)C12CC3CC(CC(C3)C1)C2 [Compound 64, N-((3s,5s,7s)-Adamantan-1-yl)-N-(4-(diethylamino)benzyl)octanamide] | – |
| 25 | >800 | CCCCCC(=O)NC(NC(=O)CCCCC)c1ccc(N(CC)CC)cc1 [Compound 53, N,N′-((4-(diethylamino)phenyl)methylene)dihexanamide] | – |
| > 20000 | – | O=C(Cc1ccc(C(F)(F)F)cc1)NC(NC(=O)Cc1ccc(C(F)(F)F)cc1)c1ccc(Cl)cc1 [Compound 33, N,N′-((4-chlorophenyl)methylene)bis(2-(4-(trifluoromethyl)phenyl)acetamide)] | – |
| 154 | >130 | O=C(Cc1ccc(Cl)cc1)NC(NC(=O)Cc1ccc(Cl)cc1)c1ccc(Cl)cc1 [Compound 24, N,N′-((4-chlorophenyl)methylene)bis(2-(4-chlorophenyl)acetamide)] | – |
| > 20000 | – | O=C(Cc1ccc(Cl)cc1)NC(NC(=O)Cc1ccc(Cl)cc1)c1ccc(F)cc1 [Compound 23, N,N′-((4-fluorophenyl)methylene)bis(2-(4-chlorophenyl)acetamide)] | – |
| > 20000 | – | O=C(Cc1ccccc1)NC(Cc1ccccc1)NC(=O)Cc1ccccc1 [Compound 37, N,N′-(2-phenylethane-1,1-diyl)bis(2-phenylacetamide)] | – |
| 36000 | – | CCCCC(NC(=O)Cc1ccccc1)NC(=O)Cc1ccccc1 [Compound 40, N,N′-(pentane-1,1-diyl)bis(2-phenylacetamide)] | – |
| 3080 | – | O=C(Cc1ccccc1)NC(NC(=O)Cc1ccccc1)c1ccc(Cl)cc1 [Compound 6, N,N′-((4-chlorophenyl)methylene)bis(2-phenylacetamide)] | – |
| 146 | >136 | CCCCCCCC(=O)NC(NC(=O)CCCCCCC)c1ccc(N(CC)CC)cc1 [Compound 54, N,N′-((4-(diethylamino)phenyl)methylene)dioctanamide] | – |
| 688 | >29 | CCN(CC)c1ccc(C(NC(=O)c2ccccc2)NC(=O)c2ccccc2)cc1 [Compound 49, N,N′-((4-(Diethylamino)phenyl)methylene)dibenzamide] | – |
| 273 | – | CCCCCCCN(Cc1ccc(N(CC)CC)cc1)S(=O)(=O)Cc1ccccc1 [Compound 74, N-(4-(Diethylamino)benzyl)-N-heptyl-1-phenylmethanesulfonamide] | – |
| 310 | >65 | COc1ccc(C(NC(=O)Cc2ccc(Cl)cc2)NC(=O)Cc2ccc(Cl)cc2)cc1 [Compound 26, N,N′-((4-methoxyphenyl)methylene)bis(2-(4-chlorophenyl)acetamide)] | – |
| > 20000 | – | O=C(Cc1ccc(Cl)cc1)NC(NC(=O)Cc1ccc(Cl)cc1)c1ccc([N+](=O)[O-])cc1 [Compound 29, N,N′-((4-nitrophenyl)methylene)bis(2-(4-chlorophenyl)acetamide)] | – |
| 1100 | – | CCCCCCCN(Cc1ccc(N(CC)CC)cc1)S(=O)(=O)c1ccc(F)cc1 [Compound 72, N-(4-(Diethylamino)benzyl)-4-fluoro-N-heptylbenzenesulfonamide] | – |
| 158 | >127 | O=C(Cc1ccc(Cl)cc1)NC(NC(=O)Cc1ccc(Cl)cc1)c1ccccc1C(F)(F)F [Compound 27, N,N′-((2-(trifluoromethyl)phenyl)methylene)bis(2-(4-chlorophenyl)acetamide)] | – |
| 10800 | – | O=C(Cc1ccc(Cl)cc1)NC(NC(=O)Cc1ccc(Cl)cc1)c1ccccc1F [Compound 22, N,N′-((2-fluorophenyl)methylene)bis(2-(4-chlorophenyl)acetamide)] | – |
| 13000 | – | CCCCCCCN(Cc1ccc(N(CC)CC)cc1)S(=O)(=O)c1ccc(C(C)C)cc1 [Compound 69, N-(4-(Diethylamino)benzyl)-N-heptyl-4-isopropylbenzenesulfonamide] | – |
| 182 | >109 | CCCCC(=O)NC(NC(=O)CCCC)c1ccc(N(CC)CC)cc1 [Compound 52, N,N′-((4-(diethylamino)phenyl)methylene)dipentanamide] | – |
| > 20000 | – | O=C(Cc1ccc(Cl)cc1)NC(NC(=O)Cc1ccc(Cl)cc1)c1ccccc1 [Compound 21, N,N′-(phenylmethylene)bis(2-(4-chlorophenyl)acetamide)] | – |
| > 20000 | – | O=C(Cc1ccc(C(F)(F)F)cc1)NC(NC(=O)Cc1ccc(C(F)(F)F)cc1)c1ccccc1F [Compound 31, N,N′-((2-fluorophenyl)methylene)bis(2-(4-(trifluoromethyl)phenyl)acetamide)] | – |
| 596 | >34 | O=C(Cc1ccccc1)NC(NC(=O)Cc1ccccc1)c1ccc(C(F)(F)F)cc1 [Compound 14, N,N′-((4-(trifluoromethyl)phenyl)methylene)bis(2-phenylacetamide)] | – |

The remaining lines, values behind:

| Structure (SMILES) | Ki [1] [nM] | SI: selectivity index for CB2 | Ki [nM] |
| --- | --- | --- | --- |
| O=C(Cc1ccc(C(F)(F)F)cc1)NC(NC(=O)Cc1ccc(C(F)(F)F)cc1)c1ccc(C(F)(F)F)cc1 [Compound 36] | > 20000 | – | – |
| CCCCCCCN(Cc1ccc(N(CC)CC)cc1)S(=O)(=O)c1ccc(OC(C)C)cc1 [Compound 71, N-(4-(Diethylamino)benzyl)-N-heptyl-4-isopropoxybenzenesulfonamide] | > 20000 | – | – |
| CCN(CC)c1ccc(CN(c2ccc(C)cc2)S(=O)(=O)c2ccc(C)cc2)cc1 [Compound 94, N-(4-(Diethylamino)benzyl)-4-methyl-N-(p-tolyl)benzenesulfonamide] | 5.4 | – | – |
| O=C(Cc1ccccc1)NC(NC(=O)Cc1ccccc1)c1ccc(F)cc1 [Compound 5, N,N′-((4-fluorophenyl)methylene)bis(2-phenylacetamide)] | 10900 | – | – |
| CCN(CC)c1ccc(CNc2ccc(Cl)cc2)cc1 [G, 4-(((4-Chlorophenyl)amino)methyl)-N,N′-diethylaniline] | 6740 | – | – |
| CCCCCCCN(Cc1ccc(N(CC)CC)cc1)S(=O)(=O)CCCC [Compound 75, N-(4-(Diethylamino)benzyl)-N-heptylbutane-1-sulfonamide] | 680 | – | – |
| O=C(Cc1ccccc1)NC(NC(=O)Cc1ccccc1)c1cccc(F)c1 [Compound 4, N,N′-((3-fluorophenyl)methylene)bis(2-phenylacetamide)] | 12700 | – | – |
| CCCCCCCN(Cc1ccc(N(CC)CC)cc1)C(=O)Cc1ccc(Cl)cc1 [Compound 77, 2-(4-Chlorophenyl)-N-(4-(diethylamino)benzyl)-N-heptylacetamide] | 696 | – | – |
| COc1ccc(C(NC(=O)Cc2ccc(C(F)(F)F)cc2)NC(=O)Cc2ccc(C(F)(F)F)cc2)cc1 [Compound 35, N,N′-((4-methoxyphenyl)methylene)bis(2-(4-(trifluoromethyl)phenyl)acetamide)] | > 20000 | – | – |
| O=C(Cc1ccccc1)NC(NC(=O)Cc1ccccc1)c1ccc(N2CCCCC2)cc1 [Compound 19, N,N′-((4-(piperidin-1-yl)phenyl)methylene)bis(2-phenylacetamide)] | 595 | >34 | – |
| CCCCCCCN(Cc1ccc(N(CC)CC)cc1)S(=O)(=O)c1ccc(Cl)cc1 [Compound 73, 4-Chloro-N-(4-(diethylamino)benzyl)-N-heptylbenzenesulfonamide] | 6740 | – | – |
| CCN(CC)c1ccc(CN(C23CC4CC(CC(C4)C2)C3)S(=O)(=O)c2ccc(C(C)C)cc2)cc1 [Compound 62, N-((3s,5s,7s)-Adamantan-1-yl)-N-(4-(diethylamino)benzyl)-4-isopropylbenzenesulfonamide] | – | – | 457 |
| O=C(Cc1ccccc1)NC(NC(=O)Cc1ccccc1)c1ccc(Br)cc1 [Compound 7, N,N′-((4-bromophenyl)methylene)bis(2-phenylacetamide)] | 2230 | – | – |
| O=C(Cc1ccc(C(F)(F)F)cc1)NC(NC(=O)Cc1ccc(C(F)(F)F)cc1)c1ccccc1 [Compound 30, N,N′-(phenylmethylene)bis(2-(4-(trifluoromethyl)phenyl)acetamide)] | > 20000 | – | – |
| CCOc1ccc(C(NC(=O)Cc2ccccc2)NC(=O)Cc2ccccc2)cc1 [Compound 11, N,N′-((4-ethoxyphenyl)methylene)bis(2-phenylacetamide)] | 1500 | – | – |
| Cc1ccc(C(NC(=O)Cc2ccc(Cl)cc2)NC(=O)Cc2ccc(Cl)cc2)cc1 [Compound 25, N,N′-(p-tolylmethylene)bis(2-(4-chlorophenyl)acetamide)] | 462 | >43 | – |
| CCCCCCCC(=O)N(CCCCCCC)Cc1ccc(N(CC)CC)cc1 [Compound 80, N-(4-(Diethylamino)benzyl)-N-heptyloctanamide] | > 20000 | – | – |
| CCN(CC)c1ccc(CN(C23CC4CC(CC(C4)C2)C3)S(=O)(=O)c2ccc(OC)cc2)cc1 [Compound 59, N-(3r)-Adamantan-1-yl)-N-(4-(diethylamino)benzyl)-4-methoxybenzenesulfonamide] | 137 | – | – |
| O=C(Cc1ccccc1)NC(NC(=O)Cc1ccccc1)c1ccc([N+](=O)[O-])cc1 [Compound 15, N,N′-((4-nitrophenyl)methylene)bis(2-phenylacetamide)] | > 20000 | – | – |
| O=C(Cc1ccc(Cl)cc1)NC(NC(=O)Cc1ccc(Cl)cc1)c1ccc(C(F)(F)F)cc1 [Compound 28, N,N′-((4-(trifluoromethyl)phenyl)methylene)bis(2-(4-chlorophenyl)acetamide)] | 101 | >198 | – |
